By EC50 is commonly meant the concentration that produces a half-maximal response.

This is an account of results in patent publication US12655125B2 (SIRONAX LTD., priority 2020, dated 2026).

The test system of this test is HT-29 cells. The test can be described thus: HT29 Cells 0FBS Assay In Vitro (TNF-α/SMAC mimetic/zVAD-FMK induced necroptosis, CellTiter-Glo cell viability). The format is cell-based. The following applies: Homo sapiens; HT-29 cells, FBS free medium, TNF-α (10 ng/ml), SMAC mimetic (6 uM), zVAD-FMK (10 μM), 20 hours; geometric mean EC50; read-out: Cell activity (EC50) of Compounds 117-281. In outline: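 HT-29 cells (5,000/well, seeded overnight) in serum-free McCoy's 5A were stimulated with TNF-α 10 ng/ml, SMAC mimetic 6 μM and zVAD-FMK 10 μM to induce necroptosis. Compound added as 10-point 3-fold series for 20 h at 37° C. CellTiter-Glo luminescence gives viability; EC50 is geometric mean of duplicate dose-responses.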
For orientation: In ATP-based viability assays light output follows the ATP content of the culture.
Consider `Cc1nn(-c2cc(OC3CN(C(=O)N4N=CC[C@H]4c4cc(F)cc(F)c4)C3)c(F)cn2)c(C)c1C(=O)NC1COC1` [compound 217, (S)-1-(4-((1-(5-(3,5-difluorophenyl)-4,5-dihydro-1H-pyrazole-1-carbonyl)azetidin-3-yl)oxy)-5-fluoropyridin-2-yl)-3,5-dimethyl-N-(oxetan-3-yl)-1H-pyrazole-4-carboxamide], for which the EC50 lay in the range of 0.1 to 100 nM.
For `Cc1c(-c2cc(OC3CN(C(=O)N4N=CC[C@H]4c4cc(F)cc(F)c4)C3)c(F)cn2)nn(C)c1N` [compound 218, (S)-(3-((2-(5-amino-1,4-dimethyl-1H-pyrazol-3-yl)-5-fluoropyridin-4-yl)oxy)azetidin-1-yl)(5-(3,5-difluorophenyl)-4,5-dihydro-1H-pyrazol-1-yl)methanone] the value was 0.1 to 100 nM.
Consider `Cc1cn(C)nc1-c1cc(OC2CN(C(=O)N3N=CC[C@H]3c3cc(F)cc(F)c3)C2)c(F)cn1` [compound 219, (S)-(5-(3,5-difluorophenyl)-4,5-dihydro-1H-pyrazol-1-yl)(3-((2-(1,4-dimethyl-1H-pyrazol-3-yl)-5-fluoropyridin-4-yl)oxy)azetidin-1-yl)methanone], for which the EC50 was in the range of 0.1 to 100 nM.
For `Cc1nn(-c2cc(OC3CN(C(=O)N4N=CC[C@H]4c4cc(F)cc(F)c4)C3)c(F)cn2)c(C)c1S(N)(=O)=O` [compound 220, (S)-1-(4-((1-(5-(3,5-difluorophenyl)-4,5-dihydro-1H-pyrazole-1-carbonyl)azetidin-3-yl)oxy)-5-fluoropyridin-2-yl)-3,5-dimethyl-1H-pyrazole-4-sulfonamide] the value was 0.1 to 100 nM; for `Cc1cc(C)n(-c2cc(OC3CN(C(=O)N4N=CC[C@H]4c4cc(F)cc(F)c4)C3)c(F)cn2)n1` [compound 221, (S)-(5-(3,5-difluorophenyl)-4,5-dihydro-1H-pyrazol-1-yl)(3-((2-(3,5-dimethyl-1H-pyrazol-1-yl)-5-fluoropyridin-4-yl)oxy)azetidin-1-yl)methanone], 0.1 to 100 nM.
As to `Cc1nn(-c2cc(OC3CN(C(=O)N4N=CC[C@H]4c4cc(F)cc(F)c4)C3)c(F)cn2)c(C)c1CC(=O)N1CCC1` [compound 222, (S)-1-(azetidin-1-yl)-2-(1-(4-((1-(5-(3,5-difluorophenyl)-4,5-dihydro-1H-pyrazole-1-carbonyl)azetidin-3-yl)oxy)-5-fluoropyridin-2-yl)-3,5-dimethyl-1H-pyrazol-4-yl)ethan-1-one], the concentration for a half-maximal effect (EC50) lay within 0.1 to 100 nM.
For the compound `Cc1nn(-c2cc(OC3CN(C(=O)N4N=CC[C@H]4c4cc(F)cc(F)c4)C3)c(F)cn2)c(C)c1CC(=O)NCCO` [compound 223, (S)-2-(1-(4-((1-(5-(3,5-difluorophenyl)-4,5-dihydro-1H-pyrazole-1-carbonyl)azetidin-3-yl)oxy)-5-fluoropyridin-2-yl)-3,5-dimethyl-1H-pyrazol-4-yl)-N-(2-hydroxyethyl)acetamide], the EC50 lay in the range of 0.1 to 100 nM.
Under `Cc1nn(-c2cc(OC3CN(C(=O)N4N=CC[C@H]4c4cc(F)cc(F)c4)C3)c(F)cn2)c(C)c1CC(=O)N1CCOCC1` [compound 224, (S)-2-(1-(4-((1-(5-(3,5-difluorophenyl)-4,5-dihydro-1H-pyrazole-1-carbonyl)azetidin-3-yl)oxy)-5-fluoropyridin-2-yl)-3,5-dimethyl-1H-pyrazol-4-yl)-1-morpholinoethan-1-one] stands 0.1 to 100 nM; under `Cc1nn(-c2cc(OC3CN(C(=O)N4N=CC[C@H]4c4cc(F)cc(F)c4)C3)c(F)cn2)c(C)c1CC(N)=O` [compound 225, (S)-2-(1-(4-((1-(5-(3,5-difluorophenyl)-4,5-dihydro-1H-pyrazole-1-carbonyl)azetidin-3-yl)oxy)-5-fluoropyridin-2-yl)-3,5-dimethyl-1H-pyrazol-4-yl)acetamide], 0.1 to 100 nM; under `CNC(=O)Cc1c(C)nn(-c2cc(OC3CN(C(=O)N4N=CC[C@H]4c4cc(F)cc(F)c4)C3)c(F)cn2)c1C` [compound 226, (S)-2-(1-(4-((1-(5-(3,5-difluorophenyl)-4,5-dihydro-1H-pyrazole-1-carbonyl)azetidin-3-yl)oxy)-5-fluoropyridin-2-yl)-3,5-dimethyl-1H-pyrazol-4-yl)-N-methylacetamide], 0.1 to 100 nM.
